The results in this text go back to patent US8912144B2, “Method for treating stroke via administration of NEP1-40 and inosine” (Children's Medical Center Corporation, priority 2003, dated 2014).

The test system of the assay is C1q, C3, metallothionein. Nature of the assay: Immunohistochemistry for C1q, C3 and metallothionein in layer 5 of the uninjured forelimb motor cortex. The format is in vivo, rat. The settings on record: 7 days after stroke. The procedure:
To investigate whether some of the changes seen in the microarray study translate into differences at the protein level, immunohistochemistry was performed for C1q, C3, and metallothionein (Study VII). […] Immunohistochemistry was used to investigate whether inosine-induced changes found at the mRNA level translate into changes at the protein level. Analyses were carried out in layer 5 of the uninjured forelimb motor cortex 7 days after a stroke was induced in the corresponding region of the contralateral hemisphere. Inosine induced changes in levels of complement proteins C1q (a) and C3 (b) and metallothionine (c).

[1] abbreviates: layer 5 of undamaged hemisphere.
Setting [2] is: layer 5 of undamaged hemisphere, vs saline.

On to `OC[C@H]1O[C@@H](n2cnc3c(O)ncnc32)[C@H](O)[C@@H]1O` [inosine], for which the “metallothionine positively staining profiles per field” value turned out to be 17.9±0.8. Moreover, for the setting “vs saline”, the “increase of number of metallothionine positively staining profiles per field” value worked out at 28%. Further, under setting [1], the “C1q average grain pixel density” value came out at 5654±894 and the “C3 average grain pixel density” value turned out to be 1377±101. Besides, under setting [2], the “increase of C1q staining intensity” value was found to be 75% and the “increase of C3 staining intensity” value turned out to be 37%.
